# Reference: article PMC12154458, “High-Throughput Screens of Repurposing Hub and DOS Chemical Libraries Reveal Compounds with Novel and Potent Inhibitory Activity Against the Essential Non-Neuronal Acetylcholinesterase of Schistosoma mansoni (SmTAChE)” (International Journal of Molecular Sciences, 2025)
# Read-outs that look alike come from different tables or passages of the source.
# Legend:
# [1] = target: recombinant human acetylcholinesterase, rHsAChE (Homo sapiens, UniProt P22303); assay: biochemical
# recombinant human acetylcholinesterase, rHsAChE, sequence (P22303 32-614): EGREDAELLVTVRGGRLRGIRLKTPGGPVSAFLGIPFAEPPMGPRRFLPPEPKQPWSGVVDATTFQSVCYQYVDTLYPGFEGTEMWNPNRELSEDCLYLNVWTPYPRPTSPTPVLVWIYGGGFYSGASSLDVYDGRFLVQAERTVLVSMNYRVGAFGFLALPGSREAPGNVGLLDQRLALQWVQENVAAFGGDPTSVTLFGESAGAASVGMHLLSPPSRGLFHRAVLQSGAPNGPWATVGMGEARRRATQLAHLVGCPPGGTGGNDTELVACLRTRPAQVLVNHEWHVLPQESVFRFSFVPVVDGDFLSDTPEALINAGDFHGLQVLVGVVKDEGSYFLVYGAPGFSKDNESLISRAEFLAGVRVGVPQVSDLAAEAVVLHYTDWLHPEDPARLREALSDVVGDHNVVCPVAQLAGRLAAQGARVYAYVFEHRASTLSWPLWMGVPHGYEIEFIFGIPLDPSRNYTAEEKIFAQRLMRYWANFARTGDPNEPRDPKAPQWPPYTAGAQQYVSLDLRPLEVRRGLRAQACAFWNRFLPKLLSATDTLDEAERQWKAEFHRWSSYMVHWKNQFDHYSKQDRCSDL
# [2] = target: T1, rSmTAChE (Schistosoma mansoni, UniProt A0A3Q0KMM5); assay: biochemical
# T1 sequence (A0A3Q0KMM5 27-661 limits assumed): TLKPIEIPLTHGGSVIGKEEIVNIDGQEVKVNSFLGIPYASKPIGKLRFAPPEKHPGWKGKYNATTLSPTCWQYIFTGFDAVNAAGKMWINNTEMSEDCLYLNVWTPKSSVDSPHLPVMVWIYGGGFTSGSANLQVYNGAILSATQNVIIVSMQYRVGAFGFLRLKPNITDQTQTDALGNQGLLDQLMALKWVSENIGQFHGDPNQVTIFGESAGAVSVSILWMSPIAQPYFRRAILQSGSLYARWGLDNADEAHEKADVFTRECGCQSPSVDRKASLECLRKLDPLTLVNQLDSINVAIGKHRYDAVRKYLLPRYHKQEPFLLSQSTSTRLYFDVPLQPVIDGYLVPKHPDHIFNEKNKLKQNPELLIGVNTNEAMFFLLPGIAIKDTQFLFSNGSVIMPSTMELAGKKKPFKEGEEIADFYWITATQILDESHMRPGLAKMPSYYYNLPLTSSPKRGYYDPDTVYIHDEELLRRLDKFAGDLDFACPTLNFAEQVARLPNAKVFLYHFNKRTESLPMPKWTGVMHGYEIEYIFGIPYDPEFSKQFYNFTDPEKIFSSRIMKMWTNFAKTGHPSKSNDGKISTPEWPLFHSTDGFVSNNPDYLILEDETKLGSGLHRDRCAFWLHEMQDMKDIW
# [3] = target: T1, rSmTAChE; format: biochemical; details: for IC50: read-out: qAC50 (IC50), rSmTAChE
# [4] = read-out: qAC50 (IC50), rHsAChE
# 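For Inhibition (%) (Average) in this document: mostly 20 µM final but a few compounds at 5 or 10 µM.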
# 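For Inhibition (%) Replicate A in this document: mostly 20 µM final but a few compounds at 5 or 10 µM.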
# 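For Inhibition (%) Replicate B in this document: mostly 20 µM final but a few compounds at 5 or 10 µM.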
Structure (SMILES),rHsAChE Data Mode [1],Inhibition (%) (Average) [2],Inhibition (%) Replicate A [2],Inhibition (%) Replicate B [2],rSmTAChE Data Mode [3],"Data Mode (curve class), rHsAChE [1]","IC50 [1, 4]","Data Mode (curve class), rSmTAChE [3]",IC50 [3],"IC50 ([1]; Table 2, DOS-A library, Inactive = inactive at the maximum tested concentration (40 µM), read-out: IC50 (µM) rHsAChE)","rHsAChE Data Mode ([1]; dose response curve classification, Table S4, DOS-A)","inhibition at 20 µM ([2]; read-out: rSmTAChE HTS Inhibition (Ave, %))",SI (Hs/Sm) [3]
COc1ccc(NC(=O)Nc2ccc3c(c2)[C@H]2C[C@@H](CC(=O)NCC(F)(F)F)O[C@@H](CO)[C@H]2O3)cc1 [BRD-K54729370-001-01-4],inactive,90.84%,91.00%,90.69%,inactive,,,,,,,,
CCCCC/C=C\C/C=C\C/C=C\C/C=C\CCCC(=O)Nc1ccc(O)cc1 [BRD-K55462201-001-07-3],,74.15%,71.40%,76.90%,,decreasing,22.4 µM,inactive,,,,,
CCOC(=O)N1c2ccc(C(F)(F)F)cc2[C@@H](N(Cc2cc(C(F)(F)F)cc(C(F)(F)F)c2)C(=O)OC)C[C@H]1CC [BRD-K55675242-001-03-0],,71.11%,72.88%,69.34%,,decreasing (weakly active),> 38 µM,inactive,,,,,
CCc1c(C(=O)NCCc2ccc(N3CCCCC3)cc2)[nH]c2ccc(Cl)cc12 [BRD-K57597776-001-01-2],,61.28%,60.33%,62.24%,,inactive,,inactive,,,,,
O=C(Cc1cccc(OC(F)(F)F)c1)Nc1ccc(CCCCc2nnc(NC(=O)Cc3ccccn3)s2)nn1 [BRD-K58070273-001-03-3],,71.54%,74.28%,68.80%,,inactive,,decreasing (weakly active),> 38 µM,,,,
CCCCCCCCCCCCc1ccc(S(=O)(=O)Nc2nncs2)cc1 [BRD-K59745944-001-04-6],,78.08%,80.43%,75.72%,,decreasing,1.16 µM,decreasing,1.86 µM,,,,
C[C@@H]1C[C@H]2[C@@H]3CCC4=CC(=O)C=C[C@]4(C)[C@@]3(Cl)[C@@H](O)C[C@]2(C)[C@@]1(OC(=O)c1ccco1)C(=O)CCl [BRD-K60640630-001-11-0],,71.97%,69.48%,74.46%,,inactive,,decreasing (weakly active),> 38 µM,,,,
CCCN1C[C@H](CSC)C[C@@H]2c3cccc4[nH]cc(c34)C[C@H]21 [BRD-K60770992-066-25-0],,71.65%,73.49%,69.82%,,decreasing,29.7 µM,decreasing (weakly active),> 38 µM,,,,
COc1cccc(C#Cc2ccc([C@H]3[C@@H](C#N)N(C(=O)c4ccccn4)[C@@H]3CO)cc2)c1 [BRD-K61082257-001-01-7],inactive,66.17%,65.93%,66.40%,decreasing (weakly active),,,,,,,,
COc1ccc(NC(=O)Nc2ccc3c(c2)[C@@H]2C[C@H](CC(=O)NCc4ccccn4)O[C@@H](CO)[C@@H]2O3)cc1 [BRD-K62846431-001-01-3],decreasing (weakly active),77.92%,78.02%,77.82%,decreasing (weakly active),,,,,,,,
"COc1cccc(C#Cc2ccc([C@H]3[C@@H](CO)N(C(=O)c4ccccn4)[C@H]3C#N)cc2)c1 [BRD-K64190282-004-01-8, (2R,3R,4S)-4-(hydroxymethyl)-3-[4-[2-(3-methoxyphenyl)ethynyl]phenyl]-1-[oxo(2-pyridinyl)methyl]-2-azetidinecarbonitrile]",,,,,decreasing,,,,,33.7 µM,decreasing,92.2%,2.59
O=C(C[C@H]1C[C@H]2c3cc(NC(=O)NC4CCCC4)ccc3O[C@H]2[C@@H](CO)O1)NCc1ccccc1F [BRD-K64460391-001-01-9],inactive,88.85%,89.69%,88.02%,decreasing (weakly active),,,,,,,,
O=C(Nc1ccccc1Br)N[C@@H]1CCN(c2ccc(C(F)(F)F)cn2)C1 [BRD-K65991129-001-02-9],,65.52%,67.06%,63.99%,,inactive,,inactive,,,,,
COc1cccc(C#Cc2ccc([C@@H]3[C@@H](C#N)N(C(=O)c4ccccn4)[C@@H]3CO)cc2)c1 [BRD-K66084396-004-02-2],inactive,72.85%,73.10%,72.60%,inactive,,,,,,,,
N#C[C@H]1[C@H](c2ccc(C3=CCCCC3)cc2)[C@@H](CO)N1S(=O)(=O)c1ccccc1 [BRD-K66729212-001-01-2],inactive,61.17%,61.05%,61.28%,inactive,,,,,,,,
CCCCC(=O)O[C@H]1CC[C@H]2[C@@H]3CCc4cc(O)ccc4[C@H]3CC[C@]12C [BRD-K66766661-001-19-2],,77.12%,78.67%,75.58%,,decreasing,29.4 µM,inactive,,,,,
COc1ccc(C#Cc2ccc3c(c2)O[C@@H](CN(C)S(=O)(=O)c2ccccc2F)[C@@H](C)CN([C@H](C)CO)S3(=O)=O)cc1 [BRD-K67027685-001-01-8],inactive,71.37%,69.23%,73.51%,inactive,,,,,,,,
C[C@H]1[C@H](C)CC[C@]2(C(=O)O)CC[C@]3(C)C(=CC[C@@H]4[C@@]5(C)CC[C@H](O)C(C)(C)[C@@H]5CC[C@]43C)[C@H]12 [BRD-K68185022-001-14-8],,75.09%,74.28%,75.90%,,inactive,,decreasing (weakly active),> 38 µM,,,,
N#C[C@H]1[C@@H](c2ccc(C#CC3CC3)cc2)[C@@H](CO)N1C(=O)Cc1ccccn1 [BRD-K68325500-004-02-0],inactive,64.83%,63.64%,66.02%,inactive,,,,,,,,
CC(C)C#Cc1ccc([C@@H]2[C@@H](CO)N3C(=O)CN(S(=O)(=O)c4ccccc4)C[C@@H]23)cc1 [BRD-K69261014-001-01-3],increasing (weakly active),63.59%,66.79%,60.39%,inactive,,,,,,,,
COC(=O)[C@]12CCC(C)(C)C[C@@H]1[C@@H]1C(=O)C=C3[C@]4(C)C=C(C#N)C(=O)C(C)(C)[C@@H]4CC[C@@]3(C)[C@]1(C)CC2 [BRD-K69694239-001-02-2],,75.78%,75.16%,76.41%,,decreasing (weakly active),> 38 µM,decreasing,34.7 µM,,,,
NC(=O)N/N=C/c1ccc(Oc2ccc(F)cc2)cc1 [BRD-K70912147-001-01-8],,75.84%,80.22%,71.46%,,inactive,,inactive,,,,,
O=C(C[C@@H]1C[C@@H]2c3cc(NC(=O)NC4CCCC4)ccc3O[C@@H]2[C@@H](CO)O1)NCc1ccccc1F [BRD-K71334452-001-01-3],inactive,89.18%,90.25%,88.11%,inactive,,,,,,,,
COc1ccc(C#Cc2ccc3c(c2)O[C@H](CN(C)S(=O)(=O)c2ccccc2F)[C@H](C)CN([C@@H](C)CO)S3(=O)=O)cc1 [BRD-K71357636-001-01-3],inactive,64.93%,63.67%,66.19%,inactive,,,,,,,,
C[C@H](CO)N1C[C@H](C)[C@@H](CN(C)C(=O)Nc2cc(F)ccc2F)Oc2cc(-c3cccc(C#N)c3)ccc2S1(=O)=O [BRD-K72311435-001-01-2],decreasing (weakly active),61.10%,61.21%,60.99%,inactive,,,,,,,,
C/C=C/c1cccc(-c2nc(C(=O)NCc3ccc(OC)cc3)cc3c2[C@@H](CCO)N([S@+]([O-])C(C)(C)C)C3)c1 [BRD-K73104592-001-03-5],inactive,64.19%,65.92%,62.45%,inactive,,,,,,,,
C[C@H](CO)N1C[C@H](C)[C@H](CN(C)S(=O)(=O)c2ccc(F)cc2)Oc2c(NC(=O)Nc3cccc4ccccc34)cccc2C1=O [BRD-K73245004-001-02-0],inactive,68.21%,69.56%,66.86%,decreasing (weakly active),,,,,,,,
